{"source": "patent US9572788B2", "about": "“Cell permeable inhibitors of anaphase promoting complex” (President and Fellows of Harvard College, priority 2014, dated 2017)", "key": {"HeLa cells": {"system": "HeLa cells", "assay": "Immunofluorescence of mitotic spindle and interkinetochore distance", "assay_type": "cell-based, human", "parameters": "Median inter-kinetochore distance / Average inter-kinetochore distance: unit not given here", "settings": "for Effect on mitotic spindle: asynchronous HeLa, 2 h, 12 μM proTAME, nocodazole or taxol", "method": "HeLa cells grown in DMEM+10% FBS were plated on 25 mm glass coverslips in a E-well dish at a density of 130,000/ml×3 ml 48 h prior to treatment. They were then treated with 0.06% DMSO, 12 μM proTAME, 300 nM nocodazole or 300 nM taxol for 2 h. The cells were washed twice with PBS and fixed with 3% paraformaldehyde for 15 min. The cells were then washed with PBS and permeabilized with PBS plus 0.5% Triton X-100 for 2 min. The cells were then washed with PBS and blocked with PBS plus 5% FBS for 1 h. CREST antisera diluted 1:50 into PBS was added to the cells and incubated at room temperature for 1 h. The cells were washed with PBS and incubated with 1:1000 anti-human-Alexa 568 (Invitrogen, A21090) and 1:100 anti-α-tubulin-FITC for 1 h. The cells were then washed with PBS and the nuclei were stained with 1 μg/ml Hoechst 33342. The cover slips were mounted in 0.1M N-propylgallate in 9:1 glycerol:PBS. Z-series images were taken on a Nikon TE2000 microscope with PerkinElmer spinning disk confocal device. Maximal Z-projection images of individual cells were made by Image J. To measure interkinetochore distances, a straight line was drawn across a kinetochore pair in the same confocal plane and pixel intensities along the line were plotted so that each kinetochore would be represented by a peak on the line. The interkinetochore distance was calculated as the distance between the peaks. Fifty-five kinetochore pairs from 5 cells treated with DMSO or proTAME were measured and the p-value was calculated with a paired student test."}, "HeLa H2B-RFP cells": {"system": "HeLa H2B-RFP cells", "assay": "Exogenous cyclin-GFP expression, live-cell imaging and quantitation", "assay_type": "cell-based, human", "settings": "Fig 5D; GFP at 60 min vs onset of mitosis; 20 μM proTAME or proAAME, 150 nM nocodazole", "method": "HeLa H2B-RFP cells were transduced with cyclin B1-GFP or cyclin A2-GFP adenovirus for 40 h. Phenol Red-Free DMEM (Mediatech) supplemented with 10% FBS and 1:100 Penicillin-Streptomycin-Glutamine (Mediatech) was used as imaging medium. 20 μM proAAME, 20 μM proTAME or 150 nM nocodazole was added 45 min prior to the start of imaging. Live cell imaging was set up as described above except that the cells were plated in an 8-well chambered coverglasses (NUNC Lab-tek 155411). Four positions per treatment group were imaged with DIC transmitted light, red fluorescence, and green fluorescence (Semrock GFP/HcRed “Pinkel” filter set) at 12 min intervals for 24 h. Stacks of red and green fluorescence were merged, saved as AVI video files and analyzed using ImageJ. For quantitation, the first GFP-positive cells that undergo mitosis in three separate movies were chosen, giving at least 30 cells quantitated for each treatment group. Mean intensity values for the green channel were collected for a cytoplasmic region of a cell upon mitotic entry, mitotic exit, or after 1 h of mitotic arrest. At the same time points, background mean green intensity was determined and individually subtracted from the cytoplasmic mean intensity. This background corrected mean intensity value was then used to determine the percentage of the original GFP signal remaining at the completion of division (for the control cells) or after 1 h of mitotic arrest (for the nocodazole and proTAME treated cells). The average values for all quantitated cells were plotted with the error bars representing standard error of the mean."}}}
{"smiles": "COC(=O)[C@H](CCCN/C(=N\\C(=O)OCOC(=O)Cc1ccccc1)NC(=O)OCOC(=O)Cc1ccccc1)NS(=O)(=O)c1ccc(C)cc1", "note": "[proTAME]", "values": [{"measurement": "Average inter-kinetochore distance", "setting": "HeLa cells; Fig 5E, 12 μM proTAME for 2 h", "value": 1.26}, {"measurement": "Median inter-kinetochore distance", "setting": "HeLa cells; Fig 5E, 12 μM proTAME for 2 h", "value": 1.28}, {"measurement": "Effect on mitotic spindle", "setting": "HeLa cells", "value": "no measurable differences in mitotic spindle morphology or inter-kinetochore distance"}, {"measurement": "Average cyclin A2-GFP (fraction remaining)", "setting": "HeLa H2B-RFP cells", "value": 0.99, "unit": "fraction remaining"}, {"measurement": "Average cyclin B1-GFP (fraction remaining)", "setting": "HeLa H2B-RFP cells", "value": 1.17, "unit": "fraction remaining"}, {"measurement": "Median cyclin A2-GFP (fraction remaining)", "setting": "HeLa H2B-RFP cells", "value": 0.95, "unit": "fraction remaining"}, {"measurement": "Median cyclin B1-GFP (fraction remaining)", "setting": "HeLa H2B-RFP cells", "value": 1.17, "unit": "fraction remaining"}]}
{"smiles": "COC(=O)Nc1nc2ccc(C(=O)c3cccs3)cc2[nH]1", "note": "[Nocodazole, reference compound]", "values": [{"measurement": "Effect on mitotic spindle", "setting": "HeLa cells", "value": "strongly perturbed spindle organization"}, {"measurement": "Average cyclin A2-GFP (fraction remaining)", "setting": "HeLa H2B-RFP cells", "value": 0.28, "unit": "fraction remaining"}, {"measurement": "Average cyclin B1-GFP (fraction remaining)", "setting": "HeLa H2B-RFP cells", "value": 0.87, "unit": "fraction remaining"}, {"measurement": "Median cyclin A2-GFP (fraction remaining)", "setting": "HeLa H2B-RFP cells", "value": 0.28, "unit": "fraction remaining"}, {"measurement": "Median cyclin B1-GFP (fraction remaining)", "setting": "HeLa H2B-RFP cells", "value": 0.83, "unit": "fraction remaining"}]}
